Series [1] deals with T1, Bone morphogenetic protein 1 (Homo sapiens, UniProt P13497).
T1 sequence (P13497 whole entry): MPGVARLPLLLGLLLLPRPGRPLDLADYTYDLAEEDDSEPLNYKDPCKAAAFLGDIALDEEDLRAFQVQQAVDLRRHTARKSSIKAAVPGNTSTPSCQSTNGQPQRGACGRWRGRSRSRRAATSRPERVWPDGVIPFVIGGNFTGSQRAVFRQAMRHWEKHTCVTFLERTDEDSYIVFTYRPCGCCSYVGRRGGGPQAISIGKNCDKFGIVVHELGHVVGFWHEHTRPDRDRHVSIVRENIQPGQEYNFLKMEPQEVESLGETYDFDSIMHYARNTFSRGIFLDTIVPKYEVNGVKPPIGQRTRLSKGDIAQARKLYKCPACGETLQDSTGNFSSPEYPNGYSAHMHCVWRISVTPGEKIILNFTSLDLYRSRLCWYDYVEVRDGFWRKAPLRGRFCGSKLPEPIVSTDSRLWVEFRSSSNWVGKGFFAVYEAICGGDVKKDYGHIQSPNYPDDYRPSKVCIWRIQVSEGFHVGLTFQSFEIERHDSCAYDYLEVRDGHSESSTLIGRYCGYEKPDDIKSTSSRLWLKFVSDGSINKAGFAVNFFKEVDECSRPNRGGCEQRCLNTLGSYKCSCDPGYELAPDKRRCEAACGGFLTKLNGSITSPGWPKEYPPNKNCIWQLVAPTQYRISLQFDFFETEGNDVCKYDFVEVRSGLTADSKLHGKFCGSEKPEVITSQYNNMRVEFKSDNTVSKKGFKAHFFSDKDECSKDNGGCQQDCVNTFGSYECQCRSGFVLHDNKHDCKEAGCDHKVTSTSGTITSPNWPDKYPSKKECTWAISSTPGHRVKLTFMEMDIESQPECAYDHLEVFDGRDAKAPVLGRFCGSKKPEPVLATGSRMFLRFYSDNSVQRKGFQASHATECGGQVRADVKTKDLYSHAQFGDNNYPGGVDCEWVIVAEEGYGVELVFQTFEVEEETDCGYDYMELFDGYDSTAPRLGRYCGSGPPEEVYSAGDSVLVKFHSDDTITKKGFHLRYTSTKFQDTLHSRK
Briefly: Inhibition of recombinant human N-terminal 6His/flag-tagged BMP1 (121 to 721 residues) expressed in CHO cells using ((5-FAM)-ELIDQYDVQRDDSSDGSLED-K(5,6 TAMRA)-CONH2) as substrate preincubated for 10 mins followed by substrate addition measured after 60 mins.

Series [2] concerns the target Macrophage metalloelastase (Homo sapiens, UniProt P39900). Briefly: Inhibition of MMP12 (unknown origin).
In series [3] the target is T2, Bone morphogenetic protein 1 (Homo sapiens) (UniProt P13497).
T2 sequence (whole entry): T1 sequence (P13497 whole entry)
Briefly: Binding affinity to BMP1 (unknown origin) assessed as dissociation rate constant using ((5-FAM)-ELIDQYDVQRDDSSDGSLED-K(5,6 TAMRA)-CONH2 as substrate preincubated for 0.5 hrs followed by substrate addition measured over 4 hrs by rapid jump dilution method.

Series [4] is described as follows: Mean residence time in sc dosed rat. It is filed as ADME, organism-based. The following applies: in vivo.
Series [5] deals with Rattus norvegicus. Briefly: Dose normalized AUC in subcutaneously dosed rat. Particulars: in vivo, sc. It is filed as ADME, organism-based.
Series [6] relates to Canis familiaris. In words: Dose normalized AUC in subcutaneously dosed dog. The format is ADME, organism-based, Canis lupus familiaris. Particulars: in vivo, sc.
Series [7] deals with T3, Tolloid-like protein 2 (Homo sapiens, UniProt Q9Y6L7).
T3 sequence (Q9Y6L7 whole entry): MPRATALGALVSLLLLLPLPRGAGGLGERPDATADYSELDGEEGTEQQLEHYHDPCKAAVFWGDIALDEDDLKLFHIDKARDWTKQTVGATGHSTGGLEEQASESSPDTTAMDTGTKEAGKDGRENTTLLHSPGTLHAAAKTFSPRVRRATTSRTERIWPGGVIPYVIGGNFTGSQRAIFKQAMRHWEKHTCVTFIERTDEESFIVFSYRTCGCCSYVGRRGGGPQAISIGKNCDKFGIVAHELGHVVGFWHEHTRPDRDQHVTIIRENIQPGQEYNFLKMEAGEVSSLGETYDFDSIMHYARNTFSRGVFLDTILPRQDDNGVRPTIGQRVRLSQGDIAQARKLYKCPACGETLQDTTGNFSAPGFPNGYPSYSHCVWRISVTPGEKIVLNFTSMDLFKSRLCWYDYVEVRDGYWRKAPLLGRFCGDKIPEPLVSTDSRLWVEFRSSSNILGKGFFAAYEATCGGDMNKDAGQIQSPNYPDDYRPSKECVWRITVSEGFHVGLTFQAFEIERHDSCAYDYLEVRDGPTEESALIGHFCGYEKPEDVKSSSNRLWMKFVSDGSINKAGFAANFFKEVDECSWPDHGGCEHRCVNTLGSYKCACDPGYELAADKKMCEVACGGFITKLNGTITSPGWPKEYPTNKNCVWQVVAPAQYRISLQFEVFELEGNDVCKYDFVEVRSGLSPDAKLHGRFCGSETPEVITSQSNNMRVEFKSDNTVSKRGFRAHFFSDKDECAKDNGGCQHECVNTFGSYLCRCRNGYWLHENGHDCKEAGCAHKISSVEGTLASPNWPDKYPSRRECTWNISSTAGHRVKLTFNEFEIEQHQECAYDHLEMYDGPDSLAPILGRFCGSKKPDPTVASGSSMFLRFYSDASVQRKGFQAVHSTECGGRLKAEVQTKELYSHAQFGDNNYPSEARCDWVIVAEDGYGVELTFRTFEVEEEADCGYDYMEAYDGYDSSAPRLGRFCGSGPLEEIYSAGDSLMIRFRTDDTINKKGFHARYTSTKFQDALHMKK
In words: Binding affinity to TLL2 (unknown origin) using ((5-FAM)-ELIDQYDVQRDDSSDGSLED-K(5,6 TAMRA)-CONH2 as substrate incubated for 3.5 hrs followed by substrate addition by FRET assay.

Series [8] addresses T2, Bone morphogenetic protein 1 (Homo sapiens). Briefly: Binding affinity to BMP1 (unknown origin) assessed as association rate constant using ((5-FAM)-ELIDQYDVQRDDSSDGSLED-K(5,6 TAMRA)-CONH2 as substrate by FRET based stopped-flow spectrofluorometric method.
Series [9] concerns the target T4, Tolloid-like protein 1 (Homo sapiens, UniProt O43897).
T4 sequence (O43897 whole entry): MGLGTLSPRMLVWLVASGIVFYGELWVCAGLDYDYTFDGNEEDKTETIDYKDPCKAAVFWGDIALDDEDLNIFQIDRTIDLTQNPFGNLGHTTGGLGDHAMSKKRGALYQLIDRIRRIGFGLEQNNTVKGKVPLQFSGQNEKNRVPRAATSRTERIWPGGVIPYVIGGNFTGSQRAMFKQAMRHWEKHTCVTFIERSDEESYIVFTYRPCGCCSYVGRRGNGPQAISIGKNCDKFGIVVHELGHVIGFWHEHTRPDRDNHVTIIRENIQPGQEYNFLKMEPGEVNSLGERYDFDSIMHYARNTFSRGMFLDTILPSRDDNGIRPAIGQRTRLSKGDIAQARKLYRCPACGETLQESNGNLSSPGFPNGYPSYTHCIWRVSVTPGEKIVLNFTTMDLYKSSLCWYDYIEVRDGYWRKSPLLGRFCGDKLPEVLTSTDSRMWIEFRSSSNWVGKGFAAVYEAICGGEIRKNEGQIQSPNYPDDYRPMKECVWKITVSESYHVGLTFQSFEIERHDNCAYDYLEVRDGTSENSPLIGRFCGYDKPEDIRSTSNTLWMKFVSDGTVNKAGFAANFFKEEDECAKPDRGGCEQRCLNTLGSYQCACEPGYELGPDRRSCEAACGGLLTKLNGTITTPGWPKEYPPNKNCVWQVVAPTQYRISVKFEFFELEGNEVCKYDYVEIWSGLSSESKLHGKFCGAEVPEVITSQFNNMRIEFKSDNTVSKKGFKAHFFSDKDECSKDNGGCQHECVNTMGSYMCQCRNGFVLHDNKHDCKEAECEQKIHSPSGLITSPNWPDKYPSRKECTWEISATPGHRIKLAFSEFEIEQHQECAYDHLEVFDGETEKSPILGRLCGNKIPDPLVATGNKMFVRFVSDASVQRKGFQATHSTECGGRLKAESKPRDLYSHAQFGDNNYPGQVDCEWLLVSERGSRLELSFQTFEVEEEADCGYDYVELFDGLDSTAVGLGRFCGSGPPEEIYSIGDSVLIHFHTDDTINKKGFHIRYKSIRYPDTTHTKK
In words: Binding affinity to TLL1 (unknown origin) using ((5-FAM)-ELIDQYDVQRDDSSDGSLED-K(5,6 TAMRA)-CONH2 as substrate incubated for 3.5 hrs followed by substrate addition by FRET assay.

For series [10], the target named is T2, Bone morphogenetic protein 1 (Homo sapiens). In words: Binding affinity to BMP1 (unknown origin) assessed as half life using ((5-FAM)-ELIDQYDVQRDDSSDGSLED-K(5,6 TAMRA)-CONH2 as substrate preincubated for 0.5 hrs followed by substrate addition measured over 4 hrs by rapid jump dilution method.
Series [11] in a line: Mean residence time in sc dosed dog. The format is ADME, organism-based, Canis lupus familiaris. Particulars: in vivo.
In series [12] the target is T1, Bone morphogenetic protein 1. In words: Binding affinity to BMP1 (unknown origin) using ((5-FAM)-ELIDQYDVQRDDSSDGSLED-K(5,6 TAMRA)-CONH2 as substrate preincubated for 3 hrs followed by substrate addition measured for 120 mins by FRET assay.

Some results are limits rather than exact numbers.

The term IC50 denotes the concentration at which inhibition is half-maximal. One may read the MRT as a mean duration of stay, worked out from the concentration-time curve. What is called Ki is the dissociation constant of the complex between target and ligand, obtained from inhibition or displacement.

Macrophage metalloelastase, sequence (P39900 whole entry): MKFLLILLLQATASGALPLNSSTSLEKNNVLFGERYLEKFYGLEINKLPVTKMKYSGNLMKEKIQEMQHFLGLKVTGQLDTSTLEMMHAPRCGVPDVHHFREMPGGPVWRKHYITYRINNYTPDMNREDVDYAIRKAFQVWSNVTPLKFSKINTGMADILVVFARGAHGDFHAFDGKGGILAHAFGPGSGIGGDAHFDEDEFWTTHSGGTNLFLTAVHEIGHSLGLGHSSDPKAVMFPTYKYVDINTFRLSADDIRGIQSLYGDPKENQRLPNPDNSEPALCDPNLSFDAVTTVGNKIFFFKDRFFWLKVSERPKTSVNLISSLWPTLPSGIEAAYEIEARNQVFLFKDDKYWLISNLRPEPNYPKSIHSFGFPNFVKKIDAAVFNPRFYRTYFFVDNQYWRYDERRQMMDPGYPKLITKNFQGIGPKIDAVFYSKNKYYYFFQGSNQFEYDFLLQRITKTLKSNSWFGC

On to `CCCCC[C@@H](CN(O)C=O)C(=O)NCNC(=O)c1cc2cccc(OC)c2o1`, for which the results for the IC50 in series [1] and in series [2] were 4000 nM and over 10000 nM, respectively.

For the molecule `CCCCC[C@@H](C(=O)NCNC(=O)c1ccc(-c2ccc(C(=O)N[C@@H](CC(=O)O)C(=O)O)c(OCC)c2)o1)[C@@H](CC)N(O)C=O`, the IC50 in [1] was under 1 nM. Besides, the results for the K in [3] and in [8] were 2.3 h⁻¹ and 5.5e+07 M⁻¹ s⁻¹, respectively. For the same molecule, the MRT in series [4] and in [11] was over 2 h throughout. Further, the AUC/dose is 0.27 kg·h/L in series [5] and 0.85 kg·h/L in series [6]. Moreover, the Ki in series [7] came out at 0.039 nM; in [9], 0.031 nM; in series [12] it was 0.0068 nM. The T1/2 in [10] was found to be 0.3 h.

Take `CCCCC[C@@H](C(=O)NCNC(=O)c1ccc(-c2cc(OCC)cc(C(=O)O)c2)o1)[C@@H](CC)N(O)C=O`: in [1], the IC50 is under 1 nM.

In the case of `COc1cccc2cc(C(=O)NCNC(=O)CCN(O)C=O)oc12`, the IC50 was 6300 nM in [1] and over 10000 nM in [2].

For the molecule `CCCCC[C@@H](C(=O)NCNC(=O)c1ccc(-c2cc(OCC)cc(P(=O)(O)O)c2)o1)[C@@H](CC)N(O)C=O`, the IC50 in series [1] was under 1 nM. Also, the K is 0.93 h⁻¹ in series [3] and 3.6e+06 M⁻¹ s⁻¹ in series [8]. For the same molecule, the MRT in [4] and in [11] was over 2 h throughout. Also, the AUC/dose in [5] was 2.3 kg·h/L; in series [6] it was 5 kg·h/L. For the same molecule, the Ki in [7] came out at 0.26 nM; in series [9] it was 0.24 nM; in [12] it was 0.04 nM. The T1/2 in [10] was determined as 0.75 h.

Take `CCCCC[C@H](CN(O)C=O)C(=O)NCNC(=O)c1cc2cccc(OC)c2o1`: the figures for the IC50 in [1] and in series [2] were 160 nM and 400 nM, respectively.

As to `CCCCC[C@H](CN(O)C=O)C(=O)NCNC(=O)c1ccc(-c2cccc(OCC)c2)o1`, in series [1], the IC50 amounted to 1 nM.

On to `COc1cccc2cc(C(=O)NCNC(=O)[C@H](Cc3ccccc3)CN(O)C=O)oc12`, for which the 50% inhibitory concentration (IC50) in series [1] was determined as 160 nM; in series [2] it was 4000 nM.

Take `CCCCC[C@H](CN(O)C=O)C(=O)NCNC(=O)c1ccc(-c2ccccc2)o1`: in [1], the IC50 turned out to be 25 nM.

In the case of `CCCCC[C@H](CN(O)C=O)C(=O)NCNC(=O)c1ccc(-c2cccc(OC)c2)o1`, the IC50 in [1] came out at 20 nM.

For `CCCCC[C@H](CN(O)C=O)C(=O)NCNC(=O)c1ccc(-c2cccc(C(=O)O)c2)o1`, in [1], the IC50 was found to be 8 nM.

For `CCCCC[C@@H](C(=O)NCNC(=O)c1ccc(-c2ccc(C(=O)O)c(OCC)c2)o1)[C@@H](CC)N(O)C=O`, the IC50 in [1] was under 1 nM.

Turning to `CCCCC[C@@H](C(=O)NCNC(=O)c1ccc(-c2cc(OCC)cc(C(=O)N[C@@H](CC(=O)O)C(=O)O)c2)o1)[C@@H](CC)N(O)C=O`, the IC50 in series [1] is under 1 nM.

For `CCC[C@H](CN(O)C=O)C(=O)NCNC(=O)c1cc2cccc(OC)c2o1`, the IC50 in [1] and in series [2] was 1250 nM in each case.

As for `CCCCC[C@@H](C(=O)NCNC(=O)c1ccc(-c2ccc(P(=O)(O)O)c(OCC)c2)o1)[C@@H](CC)N(O)C=O`, in [1], the IC50 was under 1 nM.

For `CCCCC[C@@H](C(=O)NCNC(=O)c1cc2cccc(OC)c2o1)[C@H](CC)N(O)C=O`, the IC50 in series [1] is over 10000 nM; in series [2] it was 200 nM.

Consider `CCCCC[C@@H](C(=O)NCNC(=O)c1cc2cccc(OC)c2o1)[C@@H](CC)N(O)C=O`, for which the IC50 in series [1] was 126 nM; in series [2] it was over 10000 nM.

`CCCCC[C@H](CN(O)C=O)C(=O)NCNC(=O)c1ccc(-c2ccc(C(=O)O)cc2)o1`: the IC50 in series [1] was found to be 1 nM.

Values taken from ChEMBL document CHEMBL4196124, “Reverse Hydroxamate Inhibitors of Bone Morphogenetic Protein 1” (ACS Med Chem Lett, 2018).
